In patent US8580789B2, “Treating glaucoma” (The Cleveland Clinic Foundation, priority 2007, dated 2013):

Experiments:
[1] = tested on: optic nerve/lamina cribrosa complex; test: Surface wave velocity (stiffness) across the optic nerve/lamina cribrosa complex of whole globes, Sonic Eye elastometer; design: species or system porcine; details: Example 1 group 2
Description: (§1) Surface wave velocity (SWV) is a measure of tissue stiffness, and is performed by detecting the velocity of an ultrasonic wave between 2 points (Sonic Eye, Priavision, Menlo Park, Calif.) (Dupps W J, et al., J Refract Surg; 23: 66-75 (2007)). 19 porcine eyes were divided into 2 groups. In group 1 (6 eyes), the SWV across the exposed optic nerve/lamina cribrosa complex (ON/LCC) was initially measured at the eyes' physiologic IOP and at 100 mmHg. The porcine globes were cannulated with IV tubing to facilitate the change in IOP. In group 2 (13 eyes), the pre-treatment SWV was measured across the same region and atop the peri-papillary sclera, after which both regions were treated with riboflavin 1%, Q 5 min×6, and UVA irradiation (˜365 nm at 3 mW/cm^2) for 30 min per eye. The SWV was then re-measured in each eye at the pre-treatment IOP and at 100 mmHg.
(§2) An annular sponge soaked in GTA was exposed to the peripapillary sclera for ˜30 minutes, and not the ON/LCC. Measurements were repeated as above, but also along each quadrant of peripapillary sclera to ensure uniformity and symmetry of crosslinking around the ON/LCC. The results are summarized as follows:
(§3) Eighteen porcine globes were divided evenly into 3 groups. The optic nerves were transected to expose the ON/LC, and each globe was infused through an in-line pressure transducer for direct IOP control. Surface wave velocity, a non-destructive measure of tissue stiffness, was measured across the ON/LC and PS before and after collagen crosslinking at IOP of 10 and 30 mmHg (groups 1 and 2) and at each globe's preinflation IOP and 80 mmHg (group 3). In group 3, papillary strain was measured by analyzing the displacement of fiducial marks immediately adjacent to the ON/LC using digital photography.
(§4) Surface wave velocity (SWV) is a measure of tissue stiffness that has been used in dermatologic applications to measure age-related changes (Potts R O, et al., J Invest Dermatol.; 82(1):97-100 (1984); Potts R O, et al., J Biomech.; 16(6):365-372 (1983); Davis B R, et al., Exp Gerontol; 24(3):201-210 (1989)), softening effects of tissue hydration and skin creams (Vexler A, et al., J Invest Dermatol; 113(5):732-739 (1999)), and sclerosing effects of radiation on breast skin (Gorodetsky R, et al., Int J Radiat Oncol Biol Phys.; 45(4):893-900 (1999)). When acoustic waves in the 0.5 to 30 kHz frequency range are used, propagation speed in skin is related to the density and stiffness of the tissue (Pereira J M, et al., J Biomech.; 23(8):745-751 (1990)). A prototype handheld ocular surface elastometer (Sonic Eye, Priavision, Menlo Park, Calif.) with an operating frequency within this range (4 kHz) and a fixed 4.5 mm wave propagation distance has been described in detail elsewhere (Dupps W J Jr, et al., J Refract Surg.; 23(1):66-75 (2007)). The Sonic Eye was used in this study as a non-destructive means of measuring local in situ tissue stiffness across and around the optic nerve head.
Eighteen porcine eyes were obtained from a local abattoir (Heffelfingers Meats, Inc., Jeromesville, Ohio) and were used within 24 hours postmortem. The optic nerves were dissected under microscopic visualization to expose the ON/LC (FIG. 1). […]
(§5) Three experimental groups of 6 eyes each were defined. In group 1, SWV across the optic nerve/lamina cribrosa complex and peripapillary scleral regions of interest were measured at 10 and 30 mmHg to represent a physiological range of pressures. […]

peripapillary sclera = test: Surface wave velocity (stiffness) of the peripapillary sclera of whole globes, Sonic Eye elastometer; design: species or system porcine; details: riboflavin 1% + UVA 30 min
Description: as §1, §2, §3, §4
Eighteen porcine eyes were obtained from a local abattoir (Heffelfingers Meats, Inc., Jeromesville, Ohio) and were used within 24 hours postmortem. The optic nerves were dissected under microscopic visualization to expose the ON/LC (FIG. 1). […] Replicate SWV measurements were obtained at a rate of 1 per second with a triggering foot pedal to produce at least 5 measurements that were subsequently averaged for each region of interest. A PC software interface converted the time-of-flight data to velocity in meters per second (m/s), and the velocity data were exported to Excel (v. 11, SP2; Microsoft Corp, Redmond, Wash.) and Minitab (v. 14.20; Minitab Inc, State College, Pa.) for statistical analysis.
as §5

porcine sclera = details: scleral strips; 1 hour glutaraldehyde, 5 days glyceraldehydes, 30 minutes UVA for riboflavin/UVA; cited from earlier work
human sclera = details: scleral strips; 1 hour glutaraldehyde, 5 days glyceraldehydes, 30 minutes UVA for riboflavin/UVA; cited from earlier work
rabbit eyes = details: 370 nm light at 4.2 mW/cm2; cited from earlier work
keratoconus = details: topical riboflavin with UVA light exposure; cited from earlier work
cortical neurons = details: cited from earlier work; for Protection of neurons from the neurotoxic effect of 3-deoxyglucosone and methylglyoxal: cotreatment with aminoguanidine, pretreatment with N-acetylcysteine
[2] = tested on: internal limiting membrane of the retina; details: direct application; white light for 3 minutes; cited from earlier work
human PS = details: strips incubated in 0.5 M agent over 5 days; cited from earlier work
human LC = details: strips incubated in 0.5 M agent over 5 days; cited from earlier work
retinal ganglion cells = details: by inhibiting nitric oxide synthase; cited from earlier work
porcine corneas = test: Corneal surface wave elastometry after standard crosslinking or flash-linking; details: group 1
Description: To investigate comparative cornea stiffness values in porcine corneas after standard crosslinking and a new, rapid method of crosslinking (flash-linking) using surface wave elastometry (Sonic Eye, PriaVision Inc, Menlo Park, Calif.).
Six porcine eyes were treated using a UVA double diode with 4.2 mW/cm2 UVA at 370 nm while applying 0.1% riboflavin-5-phosphate drops to the central cornea every 5 minutes as a photosensitizer for 30 min (group 1). The next 6 porcine corneas were treated with a single application of a customized photoactive crosslinking agent (PriaVision Inc) and 30 seconds of UVA light at the same power and wavelength (group 2). Following both experimental treatments, the Sonic Eye system was used to measure ultrasound surface wave propagation time between two fixed-distance transducers applied to the cornea along central horizontal and vertical positions. Intraocular pressure was continuously monitored using a digital pressure monitor display (Infinity SC9000XL, Drager medical, Lubeck, Germany) after vitreous chamber cannulation with a 23-gauge needle.

## Cc1cc2nc3c(=O)[nH]c(=O)nc-3n(C[C@H](O)[C@H](O)[C@H](O)CO)c2cc1C [riboflavin/UVA, riboflavin]
[1]; riboflavin 1% + UVA 30 min, p=0.1
  Change of SWV of the ON/LCC upon raising the IOP to 100 mmHg after crosslinking: no change
[1]; riboflavin 1% Q 5 min x6 + UVA ~365 nm 3 mW/cm^2 30 min to ON/LCC and PS, pre-treatment IOP, mean±SD
  SWV (stiffness) of the ON/LCC after crosslinking: 32.8±1.1 m/s
Peripapillary sclera; Example 1 group 2, IOP 100 mmHg
  SWV of the peripapillary sclera after crosslinking at 100 mmHg: 63.5±1.8 m/s
Peripapillary sclera; Example 1 group 2, pre-treatment IOP, mean±SD
  SWV (stiffness) of the peripapillary sclera after crosslinking: 55.7±1.5 m/s
Peripapillary sclera; Example 3 Group 1, Low IOP 10 mmHg
  Stiffness of Peripapillary Sclera, Post-crosslinking Mean ± SD: 85.5 ± 13.5 m/s
Porcine sclera
  Rise in porcine scleral stress (rigidity): 1.5 ×
Human sclera
  Rise in human scleral stress (rigidity): 29%
Rabbit eyes
  Retinal cell death after riboflavin and irradiation: retinal pigment epithelium (RPE), photoreceptor and outer nuclear layer death
keratoconus
  Clinical effect in keratoconus: used effectively as a stabilizing treatment for keratoconus

## CC(=O)N[C@@H](CS)C(=O)O [N-acetylcysteine]
Cortical neurons
  Protection of neurons from the neurotoxic effect of 3-deoxyglucosone and methylglyoxal: protected the neurons

## CC1(C)C(/C=C/C=C/C=C/C=C2\N(CCCCS(=O)(=O)O)c3ccc4ccccc4c3C2(C)C)=[N+](CCCCS(=O)(=O)[O-])c2ccc3ccccc3c21 [ICG, indocyanine green]
[2]
  Stiffness of the internal limiting membrane of the retina: increase the stiffness

## O=CC(=O)C[C@H](O)[C@H](O)CO [3-deoxyglucosone]
Cortical neurons
  Neurotoxic effect to cortical neurons: neurotoxic effect

## O=CC(O)CO (stereo not shown) [glyceraldehydes, glyceraldehyde]
Porcine sclera
  Rise in porcine scleral stress (rigidity): 5 ×
Human sclera
  Rise in human scleral stress (rigidity): 34%
Human PS
  Increase of stress with 20% strain of human PS: > 2 fold
Human LC
  Increase of stress with 20% strain of human LC: > 1.5 fold

## CC(=O)C=O [methylglyoxal]
Human PS
  Increase of stress with 20% strain of human PS: > 3 fold
Human LC
  Increase of stress with 20% strain of human LC: > 2 fold

## N=C(N)NN [aminoguanidine]
Cortical neurons
  Protection of neurons from the neurotoxic effect of 3-deoxyglucosone and methylglyoxal: protected the neurons
Retinal ganglion cells
  Neuroprotective effect to retinal ganglion cells: neuroprotective effect

## Cc1cc2nc3c(=O)[nH]c(=O)nc-3n(C[C@H](O)[C@H](O)[C@H](O)COP(=O)(O)O)c2cc1C [UVA+riboflavin, riboflavin-5-phosphate]
Porcine corneas; 0.1% riboflavin-5-phosphate drops every 5 min, UVA 4.2 mW/cm2 370 nm 30 min
  Mean surface wave velocity of cornea after crosslinking: 111.35±2.16 m/s
Porcine corneas; from 93.6 to 111.3 m/s, p=0.032
  Increase of mean surface wave velocity of cornea after crosslinking: 17.7 units
